Entries after “also recorded” stand apart in the source; their conditions may differ.

Assay [1] deals with C57BL/6J wild-type mice. Briefly: Acetaminophen-induced liver injury model in mice. Format: in vivo. The settings on record: for Necrotic Area (%) of the liver (liver tissue protection): 5 mg/kg and 10 mg/kg i.v. 1 h after APAP 300 mg/kg i.p.; for Necrotic Area (%) of the liver (liver tissue protection) / ALT biomarker level / AST biomarker level: vs APAP alone. On the procedure:
C57BL/6J wild-type mice were purchased from Guangdong Medical Animal Centre (Guangzhou, China). Male mice (n=8, 8 weeks of age) were randomly assigned to the different treatment groups. Mice were acclimatized to their environment for 1 week before the experiments. Animals were fasted overnight, but allowed access to water, before acetaminophen (APAP) administration.
APAP (Sigma Aldrich) was dissolved in warm phosphate-buffered saline (PBS; 55° C.) that was cooled to 37° C. before injection and administered intraperitoneally with APAP at a dose of 300 mg/kg after 15 hours of starvation. Compound 1 was made fresh for each experiment in sterile 0.9% saline at 20 mg/ml. N-acetylcysteine (NAC, Sigma Aldrich) was made fresh for each experiment in 0.9% saline at 20 mg/ml.
After APAP administration (1 hours), either PBS (Control Group), Compound 1 (10 mg/kg, 5 mg/kg, 2.5 mg/kg, 1 mg/kg) or NAC (150 mg/kg) were injected intravenously in the tail vein of mice. In the Control Group, the mice were injected with phosphate-buffered saline vehicle (labelled “Ctrl” in the Figures), in the Vigilance Group the mice were injected with Compound 1 (labelled “v-Compound 1-10 mg” in the Figures). In both the Control and Vigilance Groups, no APAP was administered.
Mice were sacrificed at 6 and 24 hours after administration of APAP. Blood samples and livers were harvested for serum ALT (alanine aminotransferase) and AST (aspartate aminotransferase), and histology. ALT and AST in serum samples were detected using the alanine aminotransferase assay kit (S03030) and the aspartate aminotransferase assay kit (S03040) and automated clinical chemistry analyzer (Chemray 800) from Rayto.
All liver sections were stained with a hematoxylin and eosin (H&E) stain. Necrotic area was measured and expressed as a percentage of necrotic tissue in whole area of liver section. All animal procedures were approved by the Laboratory Animals Ethics Committee of Jinan University (Guangzhou, China).

Assay [2] has as its system C57BL/6J wild-type mice. In words: Alcohol-induced liver injury in mice (chronic 8 weeks ethanol diet plus multiple binges, E8w+nB). Type of assay: in vivo. As to conditions: 10 mg/kg i.p. daily for the last two weeks of 8 weeks alcohol plus binges. The text has this: C57BL/6J wild-type mice were purchased from Guangdong Medical Animal Centre (Guangzhou, China). Male mice (n=7, 8 weeks of age) were randomly assigned to the different treatment groups. The mice were initially fed a controlled Lieber-DeCarli diet ad libitum for 5 days (TP4030C, Trophic Animal Feed High-Tech Co., Ltd, China) to acclimatize them to a liquid diet. Subsequently, the ethanol-fed groups were allowed free access for 8 weeks to an ethanol diet (TP4030D, Trophic) containing 5% (vol/vol) ethanol.
Chronic (8 weeks)-plus-multiple binges (E8w+nB): mice were fed an ethanol Lieber-DeCarli diet for 8 weeks as described above and treated by gavage administration twice a week (5 g/kg ethanol) during the 8-week feeding. Mice were euthanized 9 h post gavage.
The control mice were pair-fed an isocaloric control liquid diet for 8 weeks (P8w), followed by gavage administration of isocaloric liquid dextrin-maltose (Ctrl), without exposure to alcohol.
Compound 1 was made fresh for each experiment in sterile 0.9% saline at 20 mg/ml and administered intraperitoneally (10 mg/kg) daily for the last two weeks.
Blood samples and livers were harvested for serum ALT and AST, and histology. All liver sections were stained with H&E and Oil Red O staining. The features of alcoholic liver disease (“ALD”) are scored according to the non-alcoholic fatty liver disease (“NAFLD”) activity score (“NAS”) originally developed to measure changes in NAFLD during therapeutic trials but is also applicable to ALD. The ALD score of each group was calculated according to standard procedures.
Oil Red O is a fat-soluble azo dye, used to stain fats, specifically neutral triglycerides, lipids and lipoproteins in tissues and cells. […] The Oil Red O quantification “a.v.” means a subjective quantity, i.e., “arbitrary value”. The image quantification software ImageJ was used to select the area of oil red staining in liver sections and the area of lipid droplets in quantitative sections.

The mark [3] stands for this setting: 5 mg/kg and 10 mg/kg i.v., 6 hours after APAP.
The mark [4] stands for this setting: 5 mg/kg and 10 mg/kg i.v., 24 hours after APAP.
Where [5] appears, read: all Compound 1 levels (1, 2.5, 5, 10 mg/kg i.v.), 6 hours after APAP.
[6] abbreviates: all Compound 1 levels (1, 2.5, 5, 10 mg/kg i.v.), 24 hours after APAP.

Take `C/C=C/C[C@@H](C)[C@@H](O)[C@H]1C(=O)N[C@@H](CC)C(=O)N(C)[C@H](OCCN(C)C)C(=O)N(C)[C@@H](CC(C)C)C(=O)N[C@@H](C(C)C)C(=O)N(C)[C@@H](CC(C)C)C(=O)N[C@@H](C)C(=O)N[C@H](C)C(=O)N(C)[C@@H](CC(C)C)C(=O)N(C)[C@@H](CC(C)C)C(=O)N(C)[C@@H](C(C)C)C(=O)N1C` [Compound 1, [(R)-2′(2-dimethylaminoethoxy)-Sar]^3 cyclosporin A]: in the assay with C57BL/6J wild-type mice [1] (2.5 mg/kg, 5 mg/kg and 10 mg/kg i.v., 6 hours after APAP), the “TNF-α, IL-1β, and/or IL-6 inflammation biomarker levels of the liver” value was “reduced”. Moreover, the “Necrotic Area (%) of the liver (liver tissue protection)” value in the assay on C57BL/6J wild-type mice [1] (6 hours after APAP) is “showed liver tissue protection; also recorded: reduced necrotic area”. Besides, the “Necrotic Area (%) of the liver (liver tissue protection)” value in the assay with C57BL/6J wild-type mice [1] (24 hours after APAP) is “showed liver tissue protection; also recorded: reduced necrotic area”. Besides, in the assay on C57BL/6J wild-type mice [1] (setting [3]), the “IL-1β inflammation biomarker (ELISA)” value is reported as “reduced”, the “IL-6 inflammation biomarker (ELISA)” value is on record as “reduced”, the “TNF-α inflammation biomarker (ELISA)” value is reported as “reduced” and the ALT biomarker level result was “reduced”. Also, the AST biomarker level result in the assay on C57BL/6J wild-type mice [1] (setting [3]) is on record as “reduced”. Also, in the assay with C57BL/6J wild-type mice [1] (setting [4]), the “IL-1β inflammation biomarker (ELISA)” value is recorded as “reduced”, the “IL-6 inflammation biomarker (ELISA)” value is on record as “reduced”, the “TNF-α inflammation biomarker (ELISA)” value was “reduced” and the ALT biomarker level entry was “reduced”. Besides, the AST biomarker level entry in the assay on C57BL/6J wild-type mice [1] (setting [4]) is reported as “reduced”. Further, in the assay on C57BL/6J wild-type mice [1] (setting [5]), the “serum ALT (alanine aminotransferase) biomarker level” value is listed as “reduced” and the “serum AST (aspartate aminotransferase) biomarker level” value is “reduced”. Moreover, in the assay with C57BL/6J wild-type mice [1] (setting [6]), the “TNF-α, IL-1β, and/or IL-6 inflammation biomarker levels of the liver” value was “reduced”; the “serum ALT (alanine aminotransferase) biomarker level” value is reported as “reduced”; the “serum AST (aspartate aminotransferase) biomarker level” value was “reduced”. In addition, in the assay with C57BL/6J wild-type mice [2] (vs untreated ALD), the “serum ALT (alanine aminotransferase) level” value was “reduces” and the “serum AST (aspartate aminotransferase) level” value is recorded as “reduces”. In addition, the “hepatic lipid accumulation (Oil Red O liver staining, a.v.)” value in the assay on C57BL/6J wild-type mice [2] (vs untreated ALD Group) was “reduces hepatic lipid accumulation”.

Values taken from patent US20260240941A1, “TREATMENT AND PREVENTION OF AGENT-INDUCED LIVER CONDITIONS OR DISEASES” (FARSIGHT MEDICAL TECHNOLOGY (SHANGHAI) CO., LTD., priority 2023, published 2026).
